Data published in patent publication US12162888B2, “Carboxamides as ubiquitin-specific protease inhibitors” (Valo Early Discovery, Inc., priority 2018, dated 2024).

What follows are compounds tested against T1, USP25 (USP25-His6, Boston Biochem E-546) (Homo sapiens, UniProt Q9UHP3) (assay: Ubiquitin-Rhodamine 110 Assay for USP25 Activity, Example A-3). Conditions: Ubiquitin-Rhodamine 110 assay, Example A-3; IC50 ranges; read-out: USP25 A-3 IC50.
T1 construct: His6 (C); purchased Boston Biochem E-546
T1 sequence (Q9UHP3 1-1055): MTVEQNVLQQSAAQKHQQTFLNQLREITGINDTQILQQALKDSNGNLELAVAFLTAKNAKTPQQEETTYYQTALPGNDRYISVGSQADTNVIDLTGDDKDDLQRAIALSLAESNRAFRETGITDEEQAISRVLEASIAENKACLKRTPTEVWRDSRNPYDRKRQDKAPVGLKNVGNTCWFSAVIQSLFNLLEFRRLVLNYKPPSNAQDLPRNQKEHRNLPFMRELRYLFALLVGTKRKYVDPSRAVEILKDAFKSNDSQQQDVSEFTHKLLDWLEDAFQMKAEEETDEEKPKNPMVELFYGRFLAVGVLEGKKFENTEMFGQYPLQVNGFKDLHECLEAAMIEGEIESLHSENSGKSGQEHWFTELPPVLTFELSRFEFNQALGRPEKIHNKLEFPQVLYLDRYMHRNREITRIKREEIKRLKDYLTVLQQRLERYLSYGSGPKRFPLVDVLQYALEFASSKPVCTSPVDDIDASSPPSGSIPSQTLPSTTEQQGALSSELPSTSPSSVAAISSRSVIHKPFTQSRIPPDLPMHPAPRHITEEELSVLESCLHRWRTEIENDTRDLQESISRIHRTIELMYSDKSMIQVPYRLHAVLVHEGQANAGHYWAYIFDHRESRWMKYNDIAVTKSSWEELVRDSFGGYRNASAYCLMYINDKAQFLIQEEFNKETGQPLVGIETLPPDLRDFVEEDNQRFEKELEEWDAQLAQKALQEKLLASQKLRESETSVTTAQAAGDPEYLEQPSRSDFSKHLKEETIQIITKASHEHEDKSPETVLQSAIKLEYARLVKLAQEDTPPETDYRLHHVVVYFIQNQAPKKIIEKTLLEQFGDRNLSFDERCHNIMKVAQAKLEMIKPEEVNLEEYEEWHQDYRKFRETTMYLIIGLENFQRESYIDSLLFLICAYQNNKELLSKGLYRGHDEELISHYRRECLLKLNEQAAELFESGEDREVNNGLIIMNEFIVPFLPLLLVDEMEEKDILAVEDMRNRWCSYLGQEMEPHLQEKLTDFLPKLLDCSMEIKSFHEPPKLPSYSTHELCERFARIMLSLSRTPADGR
Type: biochemical
Procedure: Example A-3: Biochemical Assay: Ubiquitin-Rhodamine 110 Assay for USP25 Activity
The assay was performed in a final volume of 9 μL in assay buffer containing 20 mM Tris-HCl (pH 8.0, (1M Tris-HCl, pH 8.0 solution; Corning 46-031-CM)), 3 mM BME (2-Mercaptoethanol; Sigma 63689-25ML-F), 0.03% BGG (0.22 μM filtered, Sigma, G7516-25G), and 0.01% Triton X-100 (Sigma, T9284-10L). Nanoliter quantities of 10-point, 3-fold serial dilution in DMSO was pre-dispensed into 1536 assay plates (Corning, #3724BC) for a final test concentration of 25 μM to 1.3 nM, top to lowest dose, respectively. Enzyme USP25, construct USP25-His6, (Boston Biochem E-546). Concentration and incubation times were optimized for the maximal signal-to-background while maintaining initial velocity conditions at a fixed substrate concentration. The final concentration of the enzyme in the assay was […]. Final substrate (Ub-Rh110; Ubiquitin-Rhodamine 110, R&D Systems #U-555) concentration was 25 nM with [Ub-Rh110]<<Km. 3 μL of 2× enzyme was added to assay plates (pre-stamped with compound) preincubated with […] for 30 minutes and then 3 μL of 2× Ub-Rh110 was added to assay plates. Plates were incubated for 45 minutes at room temperature before addition of 3 μL of stop solution (final concentration of 10 mM citric acid (Sigma, 251275-500G)). Fluorescence was read on the Envision (Excitation at 485 nm and Emission at 535 nm; Perkin Elmer) or on the PheraSTAR (Excitation at 485 nm and Emission at 535 nm; BMG Labtech).
For assay formats Example A-1(a), A-1(b), and A-2, data were reported as percent inhibition compared with control wells based on the following equation: % inh=1−((FLU−AveLow)/(AveHigh−AveLow)) where FLU=measured Fluorescence, AveLow=average Fluorescence of no enzyme control (n=16), and AveHighh=average Fluorescence of DMSO control (n=16). IC50 values were determined by curve fitting of the standard 4 parameter logistic fitting algorithm included in the Activity Base software package: IDBS XE Designer Model 205. Data is fitted using the Levenburg Marquardt algorithm.

Structure (SMILES)	IC50
Cc1cc(C)c2c(N)c(C(=O)N[C@H]3COc4cc(N5CC6CCC(C5)N6)c(C#N)c(F)c4C3)sc2n1 [Example 241, 3-amino-N-[(3R)-6-cyano-7-{3,8-diazabicyclo[3.2.1]octan-3-yl}-5-fluoro-3,4-dihydro-2H-1-benzopyran-3-yl]-4,6-dimethylthieno[2,3-b]pyridine-2-carboxamide]	50 to 200 nM

Same assay, conditions: Ubiquitin-Rhodamine 110 assay, Example A-3; read-out: USP25 A-3 IC50 range

Structure (SMILES)	IC50
CO[C@]1(C)CN(c2ccc3c(n2)CC[C@H](NC(=O)c2sc4nc(C)ccc4c2N)C3)C[C@@H]1N [Example 427, 3-amino-N-[(6S)-2-[(3R,4S)-4-amino-3-methoxy-3-methylpyrrolidin-1-yl]-5,6,7,8-tetrahydroquinolin-6-yl]-6-methylthieno[2,3-b]pyridine-2-carboxamide]	200 to 2000 nM
Cc1ccc2c(N)c(C(=O)N[C@H]3CCc4nc(N5CC[C@]6(C5)OCC[C@H]6N)ccc4C3)sc2n1 [Example 408, 3-amino-N-[(6S)-2-[(4R,5R)-4-amino-1-oxa-7-azaspiro[4.4]nonan-7-yl]-5,6,7,8-tetrahydroquinolin-6-yl]-6-methylthieno[2,3-b]pyridine-2-carboxamide]	> 2000 nM
Cc1ccc2c(N)c(C(=O)N[C@H]3COc4cc(N5CC6CCC(C5)N6)c(F)cc4C3)sc2n1 [Example 104, 3-amino-N-[(3R)-7-{3,8-diazabicyclo[3.2.1]octan-3-yl}-6-fluoro-3,4-dihydro-2H-1-benzopyran-3-yl]-6-methylthieno[2,3-b]pyridine-2-carboxamide]	50 to 200 nM
Cc1ccc2c(N)c(C(=O)N[C@H]3CCc4nc(N5C[C@@H]6COC[C@]6(N)C5)ccc4C3)sc2n1 [Example 394, N-[(6S)-2-[(3aR,6aS)-3a-amino-hexahydro-1H-furo[3,4-c]pyrrol-5-yl]-5,6,7,8-tetrahydroquinolin-6-yl]-3-amino-6-methylthieno[2,3-b]pyridine-2-carboxamide]	> 2000 nM
Cc1ccc2c(N)c(C(=O)N[C@H]3CCc4nc(N5CC[C@](N)(CO)C5)ccc4C3)sc2n1 [Example 386, 3-amino-N-[(6S)-2-[(3R)-3-amino-3-(hydroxymethyl)pyrrolidin-1-yl]-5,6,7,8-tetrahydroquinolin-6-yl]-6-methylthieno[2,3-b]pyridine-2-carboxamide]	200 to 2000 nM
Cc1ccc2c(N)c(C(=O)N[C@H]3CCc4nc(N5C[C@@H](N)[C@H](C(F)(F)F)C5)ccc4C3)sc2n1 [Example 364, 3-amino-N-[(6S)-2-[(3S,4R)-3-amino-4-(trifluoromethyl)pyrrolidin-1-yl]-5,6,7,8-tetrahydroquinolin-6-yl]-6-methylthieno[2,3-b]pyridine-2-carboxamide]	> 2000 nM
Cc1ccc2c(N)c(C(=O)N[C@H]3CCc4nc(N5CC[C@@]6(C5)OCC[C@@H]6N)ccc4C3)sc2n1 [Example 407, 3-amino-N-[(6S)-2-[(4S,5S)-4-amino-1-oxa-7-azaspiro[4.4]nonan-7-yl]-5,6,7,8-tetrahydroquinolin-6-yl]-6-methylthieno[2,3-b]pyridine-2-carboxamide]	> 2000 nM
Cc1ccc2c(N)c(C(=O)N[C@H]3CCc4nc(N5CC[C@@](N)(CO)C5)ccc4C3)sc2n1 [Example 387, 3-amino-N-[(6S)-2-[(3S)-3-amino-3-(hydroxymethyl)pyrrolidin-1-yl]-5,6,7,8-tetrahydroquinolin-6-yl]-6-methylthieno[2,3-b]pyridine-2-carboxamide]	> 2000 nM
Cc1ccc2c(N)c(C(=O)N[C@@H]3COc4cc(N5C[C@@H]6CNC[C@H]6C5)ccc4C3)sc2n1 [Example 42, 3-amino-N-((S)-7-((3aS,6aS)-hexahydropyrrolo[3,4-c]pyrrol-2(1H)-yl)chroman-3-yl)-6-methylthieno[2,3-b]pyridine-2-carboxamide]	200 to 2000 nM
Cc1ccc2c(N)c(C(=O)N[C@H]3CCc4nc(N5CC[C@]6(C5)OCC[C@@H]6N)ccc4C3)sc2n1 [Example 406, 3-amino-N-[(6S)-2-[(4S,5R)-4-amino-1-oxa-7-azaspiro[4.4]nonan-7-yl]-5,6,7,8-tetrahydroquinolin-6-yl]-6-methylthieno[2,3-b]pyridine-2-carboxamide]	> 2000 nM
CCn1ccc2cc(C(=O)N[C@H]3CCc4nc(N5C[C@@H](N)[C@H](C(F)(F)F)C5)ccc4C3)cnc21 [Example 422, N-[(6S)-2-[(3S,4R)-3-amino-4-(trifluoromethyl)pyrrolidin-1-yl]-5,6,7,8-tetrahydroquinolin-6-yl]-1-ethyl-1H-pyrrolo[2,3-b]pyridine-5-carboxamide]	> 2000 nM
Cc1ccc2c(N)c(C(=O)N[C@H]3CCc4nc(N5CC6(C[C@H](N)CO6)C5)ccc4C3)sc2n1 [Example 399, 3-amino-N-[(6S)-2-[(7S)-7-amino-5-oxa-2-azaspiro[3.4]octan-2-yl]-5,6,7,8-tetrahydroquinolin-6-yl]-6-methylthieno[2,3-b]pyridine-2-carboxamide]	200 to 2000 nM
COC[C@@H]1CN(c2ccc3c(n2)OC[C@H](NC(=O)c2sc4nc(C)cc(C)c4c2N)C3)C[C@@H]1N [Example 348, 3-amino-N-[(3R)-7-[(3R,4R)-3-amino-4-(methoxymethyl)pyrrolidin-1-yl]-2H,3H,4H-pyrano[2,3-b]pyridin-3-yl]-4,6-dimethylthieno[2,3-b]pyridine-2-carboxamide]	> 2000 nM
Cc1ccc2c(N)c(C(=O)N[C@H]3CCc4nc(N5C[C@H]6COC[C@@H](C5)[C@H]6N)ccc4C3)sc2n1 [Example 396]	200 to 2000 nM
COC[C@]1(N)CCN(c2ccc3c(n2)CC[C@H](NC(=O)c2sc4nc(C)ccc4c2N)C3)C1 [Example 389, 3-amino-N-[(6S)-2-[(3S)-3-amino-3-(methoxymethyl)pyrrolidin-1-yl]-5,6,7,8-tetrahydroquinolin-6-yl]-6-methylthieno[2,3-b]pyridine-2-carboxamide]	200 to 2000 nM
Cc1cnc2c(N)c(C(=O)N[C@H]3CCc4cc(N5CC(C(=O)O)C5)ccc4C3)sc2n1 [Example 6-4, (S)-1-(6-(7-amino-3-methylthieno[2,3-b]pyrazine-6-carboxamido)-5,6,7,8-tetrahydronaphthalen-2-yl)azetidine-3-carboxylic acid]	200 to 2000 nM
Cc1ccc2c(N)c(C(=O)N[C@H]3CCc4nc(N5CC[C@@]6(C5)OCC[C@H]6N)ccc4C3)sc2n1 [Example 405, 3-amino-N-[(6S)-2-[(4R,5S)-4-amino-1-oxa-7-azaspiro[4.4]nonan-7-yl]-5,6,7,8-tetrahydroquinolin-6-yl]-6-methylthieno[2,3-b]pyridine-2-carboxamide]	200 to 2000 nM
CO[C@@]1(C)CN(c2ccc3c(n2)CC[C@H](NC(=O)c2sc4nc(C)ccc4c2N)C3)C[C@H]1N [Example 428, 3-amino-N-[(6S)-2-[(3S,4R)-4-amino-3-methoxy-3-methylpyrrolidin-1-yl]-5,6,7,8-tetrahydroquinolin-6-yl]-6-methylthieno[2,3-b]pyridine-2-carboxamide]	200 to 2000 nM
